Test results published in the supplement of paper PMC10307832.

Tests used:
Experiment in all cases: relative viability (nuclei count vs DMSO), 5 days (fraction); higher = more cells survive
MK-2206 + OSI-027 = compound: NC1(c2ccc(-c3nc4ccn5c(=O)[nH]nc5c4cc3-c3ccccc3)cc2)CCC1 [MK-2206] + COc1cccc2cc(-c3nc([C@H]4CC[C@H](C(=O)O)CC4)n4ncnc(N)c34)[nH]c12 [OSI-027] (partner 0.5 µM)
How it was run: (§1)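 After 5 days of treatment, lung cancer cells in 1536-well plates were fixed and stained in a single step (final 0.05% Triton X-100, 1% formaldehyde, 1 ug/ml Hoechst) and their nuclei counted on 4× images. Treatment had been applied by pin tool the day after seeding as one drug alone or as a fixed anchor-drug dose with five library-drug doses (not always all listed) in √10 steps. Relative viability is the nuclei count of treated wells divided by that of vehicle wells, and values are medians of duplicate plates.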

Pictilisib + Phenformin = compound: CS(=O)(=O)N1CCN(Cc2cc3nc(-c4cccc5[nH]ncc45)nc(N4CCOCC4)c3s2)CC1 [Pictilisib] + N=C(N)NC(=N)NCCc1ccccc1 [Phenformin] (partner 250 µM)
How it was run: as §1

Pictilisib + Lapatinib = compound: CS(=O)(=O)N1CCN(Cc2cc3nc(-c4cccc5[nH]ncc45)nc(N4CCOCC4)c3s2)CC1 [Pictilisib] + CS(=O)(=O)CCNCc1ccc(-c2ccc3ncnc(Nc4ccc(OCc5cccc(F)c5)c(Cl)c4)c3c2)o1 [Lapatinib] (partner 2 µM)
How it was run: as §1

Pictilisib + Crizotinib = compound: CS(=O)(=O)N1CCN(Cc2cc3nc(-c4cccc5[nH]ncc45)nc(N4CCOCC4)c3s2)CC1 [Pictilisib] + C[C@@H](Oc1cc(-c2cnn(C3CCNCC3)c2)cnc1N)c1c(Cl)ccc(F)c1Cl [Crizotinib] (partner 1 µM)
How it was run: as §1

Pictilisib + Trametinib = compound: CS(=O)(=O)N1CCN(Cc2cc3nc(-c4cccc5[nH]ncc45)nc(N4CCOCC4)c3s2)CC1 [Pictilisib] + CC(=O)Nc1cccc(-n2c(=O)n(C3CC3)c(=O)c3c(Nc4ccc(I)cc4F)n(C)c(=O)c(C)c32)c1 [Trametinib] (partner 0.02 µM)
How it was run: as §1

UMC-11
relative viability (MK-2206 + OSI-027; first compound 0.01 µM): 0.491 | relative viability (MK-2206 + OSI-027; first compound 0.03162 µM): 0.567 | relative viability (MK-2206 + OSI-027; first compound 0.3162 µM): 0.46 | relative viability (MK-2206 + OSI-027; first compound 1 µM): 0.521 | relative viability (Pictilisib + Phenformin; first compound 0.02 µM): 0.331 | relative viability (Pictilisib + Phenformin; first compound 0.06325 µM): 0.346 | relative viability (Pictilisib + Phenformin; first compound 0.6325 µM): 0.312 | relative viability (Pictilisib + Phenformin; first compound 2 µM): 0.315 | relative viability (Pictilisib + Lapatinib; first compound 0.02 µM): 1.09 | relative viability (Pictilisib + Lapatinib; first compound 0.06325 µM): 1.21 | relative viability (Pictilisib + Lapatinib; first compound 0.6325 µM): 1.03 | relative viability (Pictilisib + Lapatinib; first compound 2 µM): 0.887 | relative viability (Pictilisib + Crizotinib; first compound 0.02 µM): 0.633 | relative viability (Pictilisib + Crizotinib; first compound 0.06325 µM): 0.887 | relative viability (Pictilisib + Crizotinib; first compound 0.6325 µM): 0.733 | relative viability (Pictilisib + Crizotinib; first compound 2 µM): 0.58 | relative viability (Pictilisib + Trametinib; first compound 0.02 µM): 0.671 | relative viability (Pictilisib + Trametinib; first compound 0.06325 µM): 0.872 | relative viability (Pictilisib + Trametinib; first compound 0.6325 µM): 0.735 | relative viability (Pictilisib + Trametinib; first compound 2 µM): 0.674
